These results are taken from patent US20260130952A1, “ENGINEERED BACTERIA AND METHODS OF USE IN TUMOR REMODELING” (priority 2021, published 2026).

SMILES strings stand for the structures.

The experiment concerns 4T1 tumors. Description: Antitumor study in 4T1 syngeneic tumor model. It is filed as in vivo, BALB/cJ mice. On the procedure:
6-8 weeks old female BALB/cJ and male C57BL/6 mice (Jackson Labs) were used in all experiments. For tumor induction, […] tumor cells/0.1 ml saline (4T1, MDA-MB-231, RInk1, PANC1, MC38) were injected subcutaneously in the shaved right flank of anesthetized (2% isoflurane) mice. Tumor measurements were taken every alternate day and tumor volume was calculated using the following formula: 0.5*length*width*width. For therapeutic assessment or bioluminescent imaging, each bacterial dose contained […] bacteria suspended in 0.1 ml saline was administered intravenously. Lapatinib was suspended in a solution containing 0.5% w/v HPMC and 0.10% w/v Tween 80 and each dose delivered 5 mg/Kg orally. At the study end point the mice were euthanized via carbon dioxide inhalation and cervical dislocation followed by collection of organs. For cytokine profiling, blood withdrawal was performed after a period of 24 hours via the submandibular vein and collected in tubes containing heparin as an anticoagulant (40 U/ml of blood). […]
To test the hypothesis, mice were treated orally with lapatinib at a dose of 5 mg/kg (FIG. 5A). The following 5 treatment groups were assessed in parallel: control mice with saline injections, non-hypervesiculating ECHy+lapatinib, ΔECHy, lapatinib and ΔECHy+lapatinib (n=5). Tumor volume was measured every alternate day. […]

In the case of `CS(=O)(=O)CCNCc1ccc(-c2ccc3ncnc(Nc4ccc(OCc5cccc(F)c5)c(Cl)c4)c3c2)o1` [lapatinib], for the setting “endpoint tumor size 1000 mm^3, bacteria 10^6 i.v., lapatinib 5 mg/kg oral, anti-PDL1 5 mg/kg”, the median survival was 20 days. Besides, the “tumor growth rate / progression” value (n=5) is recorded as “comparatively slower”.
